Melting point data for 89 compounds are collected here from a melting point compilation (Tetko et al.; mined from patent text by program, amines drawn as free bases though some values may be those of a salt).

As usually defined, the melting point is the temperature, or range, at which the solid turns liquid.

Compound `O=c1c(-c2nc3ccccc3[nH]2)coc2ccccc12` came in with a melting point of 154 °C.

With `N#Cc1cscc1Nc1c(Cl)cccc1Cl`, the melting point was in the range of 105 to 108 °C.

`CSCC1Cc2cc(C)c3[nH]c(=O)ccc3c2O1` (centres undefined) had a melting point of 203 to 206 °C. Next, `CC12Nc3ccccc3N1C(=O)c1ccccc12` (centres undefined): 182 °C. Next, `COc1ccc(-n2c(=O)[nH]c3cc(Cl)cc(Cl)c3c2=O)cc1`: 294 to 296 °C.

In the case of `CC(CCc1cccc(F)c1)NCc1c(CO)ccc(O)c1CO` (centres undefined), the melting point is 114 to 117 °C. Next, `CCOC(=O)/C=C/c1ccc(OCCCOCCOC)cc1Oc1ncc(C(F)(F)F)cc1Cl`: 65 to 67 °C. Compound `COc1cc(C(C)C)c(Oc2cnc(NC(CO)CO)nc2N)cc1I` displayed a melting point of 158 to 159 °C.

Compound `N#Cc1ccc(C(=O)Nc2cc(C(=O)NCc3ccccc3)ccn2)cc1` had a melting point of 180 to 181 °C.

As for `Cc1cccc(-c2nc(-c3ccc(S(C)=O)cc3)sc2-c2ccnc(C)c2)c1` (centres undefined), the melting point was in the range of 128 to 130 °C. Then `CCC(C)C(NC(=O)OC)C(=O)NN(Cc1ccc(-c2nccs2)cc1)CC(O)C(Cc1ccccc1)NC(=O)C(NC(=O)OC)C(C)C` (centres undefined), with 227 to 229 °C; and `O=C1CCC(N2Cc3c(OCc4cn5cc(CN6CCOCC6)ccc5n4)cccc3C2=O)C(=O)N1` (centres undefined), with 155 to 157 °C; and `O=C(CC(F)(F)F)Nc1c(C(=O)c2ccccc2)[nH]c2cc(Cl)ccc12`, with 201 to 204 °C. Next, `CCOc1nc(C)nc2oc(-c3ccco3)nc12`: 104 to 106 °C; `CNC(=O)[C@H]1O[C@@H]1c1ccc(C)cc1`: 152 to 153 °C; `COc1cc2c(cc1C#N)C1(CO2)C(=O)Nc2ccccc21` (centres undefined): 185 to 186 °C.

Regarding `CC(C)c1ccc(N(Cc2ccc(N(C)C)cc2)C(=S)C2CCCc3ccccc32)cc1` (centres undefined), the melting point is 123 to 125 °C. `COc1cc(OCCSC)ccc1-c1nc2ncccc2[nH]1` had a melting point of 197 to 199 °C. `Clc1ccc(C(CCC2CCCC2)Cn2cncn2)c(Cl)c1` (centres undefined) came in with a melting point of 71 °C. Next, `CC(=O)N(O)Cc1ccccc1Nc1c(Cl)ccc(C)c1Cl`: 155 to 156 °C; `O=C1Nc2cccnc2N(C(=O)CN2CCN(CCN3CCOCC3)CC2)c2ccccc21`: 227 to 229 °C; `CC(C(=O)O)(c1ccc(N2CCCC2)cc1)c1ccc(N2CCCC2)cc1`: 174 to 176 °C.

Regarding `CCOC(=O)c1cc2c(=O)n(C(C)C)c3ccccc3n2c1`, the melting point fell in the range of 169 to 170 °C. For `COc1ccc(Nc2nc(N3CCOCC3)nc(-n3c(C(F)F)nc4c(OC)cccc43)n2)nn1`, the melting point is 256 to 259 °C. Then `Nc1nc(N)nc(N2CCNCC2)n1`, with 262 to 268 °C; and `Cc1ccc(S(=O)(=O)N(C)c2ccc(C)c([N+](=O)[O-])c2)cc1`, with 104 to 106 °C. In turn, `CC(C)(C)c1ccc(C(=O)Nc2cn3cc(-c4cn[nH]c4)ccc3n2)cc1` registered a melting point of 278 to 280 °C. Next, `CC1(C)CC(=O)N(CCCCN2CCN(c3nc(C(C)(C)C)cs3)CC2)C(=O)C1`: 93 to 94 °C; `COc1cc(=O)n(-c2cccc(C(F)(F)F)c2)nc1C(C)=O`: 136 to 138 °C. Next, `COc1ccc(C(=O)Nc2c(C)c(C)c3c(c2C)C(c2ccc(C(C)C)cc2)C2(CCN(C)CC2)O3)cc1` (centres undefined): 277 to 278 °C; `O=C1NCC(COc2cccc3c2SCCC3)O1` (centres undefined): 152 to 153 °C.

Take `CC(C)Oc1ccc([N+](=O)[O-])cc1C(=O)O`: the melting point is 124 to 125 °C.

Regarding `O=C(NCC(F)(F)F)C1(CCCCc2ccc(NS(=O)(=O)c3ccc([N+](=O)[O-])cc3)cc2)c2ccccc2-c2ccccc21`, the melting point was 136 to 138 °C. Then `CC(=O)Nc1cc2c(c(C(=O)O)c1)NCCO2`, with 253 °C. Next, `c1ccc2c(c1)cc1cnc(Nc3ccc(N4CCOCC4)cc3)nn12`: 205 to 210 °C. Next, `CC(C)(C)OC(=O)CN1CCN2C(=O)N(c3cc(Cl)cc(Cl)c3)C(=O)C2(Cc2ccc(Br)cc2)C1` (centres undefined): 74.7 °C; `Cc1nc(Cl)c([N+](=O)[O-])c(N2CCc3ccccc3CC2)n1`: 161 to 165 °C. `COc1ccc(N2CCN(C)[C@@H]3Cc4ccccc4[C@H]32)c(CO)c1` (relative stereo) registered a melting point of 179 to 183 °C. Then `CC(C)(O)COc1c(-c2ccc(S(C)(=O)=O)cc2)cnn(-c2ccc(F)cc2)c1=O`, with 152 to 154 °C. Compound `Clc1ccc2c(c1)C(c1ccco1)=NCC1CSCCN21` (centres undefined) yielded a melting point of 138 to 140 °C. `CC(=O)NNc1ccc(N2C(=S)SCC2(O)c2ccccc2)cc1` (centres undefined) registered a melting point of 80 to 84 °C. `CC12C=CC(=O)C=C1CCC1C2C(O)CC2(C)C1CCC2(O)C(O)C(=O)O` (centres undefined) showed a melting point of 213 to 214 °C.

The compound `COc1cc(Nc2nc3cccc(-c4ccc(S(=O)(=O)N5CCOCC5)cc4)c3o2)cc(OC)c1OC` yielded a melting point of 201 to 203 °C.

`COC[C@@H](NS(=O)(=O)c1ccc2c(Cl)cnc(Cl)c2c1)C(=O)OC(C)(C)C` yielded a melting point of 135 to 137 °C. Next, `CN(C)C(=O)C(C)(C)n1ccc(-c2ccccc2)n1`: 99.5 to 102 °C; `O=C1C(O)=C(O)C(=O)c2cc(Cl)ccc21`: 228 to 229 °C. Then `Clc1ccc(OCc2nc3c(OCc4ccccc4)cccc3n2CCCC2CCN(CCCN3CCCCC3)CC2)cc1`, with 58 to 60 °C; and `C[C@@H]1OC(=O)[C@H]2[C@H]3O[C@H]([C@H]4CCCC[C@H]43)[C@@H]21`, with 148 to 149 °C. `Brc1c[nH]c(CN2CCCC2)c1` showed a melting point of 96 to 99 °C. In turn, `CN1C(=O)CN=C(c2cccc(C(F)(F)F)c2)c2ccccc21` displayed a melting point of 121 to 122 °C. Then `Cc1ncn(-c2ccc(NC(=O)OCc3ccccc3)cc2F)n1`, with 153 to 155 °C; and `O=C(N[C@H]1CCN(Cc2ccccc2)C[C@H]1O)c1ccccc1O` (relative stereo), with 127 °C. Then `O=S1(=O)C(CN2CCCCC2)=Cc2ccc(Cl)cc21`, with 154 to 156 °C.

For the compound `O=C1N(CCC2CC2)c2ccccc2C12COc1cc3c(cc12)OCO3` (centres undefined), the melting point lay within 125 to 127 °C. As for `NNC(=O)Nc1nc2ccccc2[nH]1`, the melting point lay in the range of 320 to 322 °C. On to `CC1CC(=O)NN=C1c1ccc2c(c1)N(C)C(=O)C(C)O2` (centres undefined), for which the melting point fell in the range of 184 to 185 °C. Then `C=Cc1ccc(CSC(CC(=O)O)C(=O)O)cc1` (centres undefined), with 173 to 175 °C; and `CN1CCN(C(c2ccc(Cl)cc2)c2cccc(C=CC(=O)O)c2)CC1` (centres undefined), with 131 to 141 °C.

Take `O=C(NO)c1ccc(CNC(=O)c2[nH]c(-c3ccccc3)cc2-c2ccc(F)cc2)o1`: the melting point lay within 152 to 153 °C. Then `COC(=N)c1ccc(C(=O)O)cn1`, with 284 to 286 °C; and `COc1nc(-c2ccccc2)n(Cc2ccc(-c3ccccc3S(N)(=O)=O)cc2)c1C=O`, with 188 °C. As for `N[C@@H](Cc1ccc(C(F)(F)F)cc1)[C@H](O)c1ccc(Cl)nc1` (racemic), the melting point lay in the range of 103 to 104 °C. Then `CC1(C)Nc2ncc(I)cc2N(Cc2cc(F)ccc2F)C1=O`, with 198 to 201 °C; and `CC(Oc1cccnc1)C(=O)Nc1ccc(C(=O)Nc2ccccc2N)cc1` (centres undefined), with 193 to 196 °C. As to `CNc1cc(NS(=O)(=O)c2ccc(NC(C)=O)cc2)nc(N2CCCC2)n1`, the melting point is 271 to 274 °C. Take `COc1cc2c(cc1Nc1ncc(Cl)c(Nc3ccc(N4CCOCC4)cc3OC)n1)CCOC(=O)N2C`: the melting point lay in the range of 242 to 245 °C. Then `CC(Oc1ccccc1Cl)c1nnc(N)s1` (centres undefined), with 160 to 164 °C; and `C#CCc1ccc2c(C)c(C(=O)O)c(=O)oc2c1`, with 172 °C.

In turn, `Nc1nc(Cl)c(Cl)nc1C=Nc1ccc(Cl)cc1` had a melting point of 179 to 182 °C.

As for `COc1ccc(-c2coc3ccc(-c4nnc(SCc5cccc(C)c5)o4)cc23)cc1`, the melting point was in the range of 123 to 124 °C. Next, `CCCn1nc2c(N)nc3c(c2c1CCCc1cc(-c2cccnc2)no1)CCCC3`: 168 to 170 °C; `CC(C)(C)n1nn[nH]c1=S`: 92 to 94 °C; `COCCCNc1nc(N)c(SC)c(F)n1`: 48 to 64 °C. Next, `O=C(O)[C@@H]1C[C@H](C2CCCCC2)CN1C(=O)CP(=O)(O)CCCCc1ccccc1`: 175 to 176 °C; `c1ccc(Cc2cnc(N3CCN(c4nc(-c5ccccc5)nc5ccccc45)CC3)nc2)cc1`: 135 to 137 °C; `Cc1nc(OC(F)F)nc(C)c1N1CCCn2c1nc1c(Cl)ccc(C(OC(F)F)C(F)(F)F)c12` (centres undefined): 165 to 166 °C. Turning to `CC(=O)c1c2c(c(C)[nH]c1=O)CC(c1ccccn1)CC2` (centres undefined), the melting point lay within 254 to 256 °C. In turn, `COc1ccc(N)cc1C(=O)O` displayed a melting point of 163 to 166 °C. Regarding `COc1ccc(CCCNC(=O)N(C)O)cc1OC`, the melting point lay within 99 to 100 °C. As for `Nc1ncccc1C(=O)NCC1CCN(C[C@H]2COc3ccc(Br)cc3O2)CC1`, the melting point fell in the range of 158 to 160 °C. Then `COC(=O)CCC#Cc1ccccc1[N+](=O)[O-]`, with 44 to 46 °C; and `CC(=O)NCC1CN(c2ccc(-c3cccc(CF)c3)c(F)c2)C(=O)O1` (centres undefined), with 120 to 122 °C.

On to `O=C(c1ccccc1F)c1cc(Cl)ccc1CSc1ccccc1`, for which the melting point is 81 to 82 °C. Then `CCCN(CCC)C1Cc2cc(C)cc3ncn(c23)C1` (centres undefined), with 91 to 94 °C; and `O=C1NC(=O)C(c2ccc(Oc3ccccc3)cc2)C(=O)N1`, with more than 240 °C. `CCOC(=O)CCCOc1ccc(C(=O)Nc2ccccc2Sc2ccccc2-c2nnn[nH]2)cc1` showed a melting point of 173 to 175 °C. Compound `Cc1cc2oc(=O)c3c(c2cc1NC(=O)c1ccccc1)CCN(CCN1CC2CCC(CC2)C1)C3` returned a melting point of 174 to 176 °C. For `CSCC1CCN(c2cn(-c3cccnc3)nc2Cl)C1=O` (centres undefined), the melting point was in the range of 83 to 84 °C. On to `CN(C)CCCCCCOc1ccc(C(=O)/C=C/c2ccccc2)cc1`, for which the melting point was in the range of 43 to 46 °C.
